In ChEMBL document CHEMBL1152319, “Bromopyrrole alkaloids from marine sponges of the genus Agelas” (2009):
≈ marks a conversion by molar mass, not a printed value.

Legend:
Format in all cases: functional
[1] = tested on: Aspergillus niger; assay: Antifungal activity against Aspergillus niger
[2] = tested on: Bacillus subtilis; assay: Antibacterial activity against Bacillus subtilis
[3] = tested on: Micrococcus luteus; assay: Antibacterial activity against Micrococcus luteus
[4] = tested on: Staphylococcus aureus; assay: Antibacterial activity against Staphylococcus aureus

Row | SMILES | MIC [1] | MIC [2] | MIC [3] | MIC [4]
1 | O=C1NC(=O)/C(=C/[C@@H](O)CNC(=O)c2cc(Br)c(Br)[nH]2)N1 [MUKANADIN F] | 16.7 µg/mL (≈ 39.6 µM) | – | – | –
2 | N=C1N[C@H]2N3C(=N)N[C@@H](O)[C@@]34[C@H]([C@H](CNC(=O)c3cc(Br)c[nH]3)[C@@H](CNC(=O)c3cc(Br)c(Br)[nH]3)[C@@H]4Cl)[C@@]2(O)N1 [NAGELAMIDE O] | – | 33.3 µg/mL (≈ 43.4 µM) | 33.3 µg/mL (≈ 43.4 µM) | 33.3 µg/mL (≈ 43.4 µM)
